Reference: PubChem BioAssay (NCI)
“And” between values parts separate entries of the source, which are not always exact repeats. Equal values may be shown once.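 Dose response: 5 concentrations. Exposure: 48 h. Format: 96-well plates. Endpoint: linear interpolation; highest concentration if not reached. Here, GI50 denotes the concentration required for 50% inhibition of growth. The concentration for full growth arrest is given as TGI.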

How the values were obtained:
Test in all cases: NCI anticancer screen, dose series, 48 h
OVCAR-8 ovarian = system: OVCAR-8 ovarian
NCI-H23 lung = system: NCI-H23 lung
SR leukemia = system: SR leukemia
HOP-62 NSCLC = system: HOP-62 NSCLC
A498 renal = system: A498 renal
OVCAR-4 ovarian = system: OVCAR-4 ovarian
OVCAR-5 ovarian = system: OVCAR-5 ovarian
SNB-75 CNS = system: SNB-75 CNS
SK-MEL-2 melanoma = system: SK-MEL-2 melanoma
OVCAR-3 ovarian = system: OVCAR-3 ovarian
PC-3 prostate = system: PC-3 prostate

Row | Structure (SMILES) | TGI (OVCAR-8 ovarian) | TGI (NCI-H23 lung) | TGI (SR leukemia) | TGI (HOP-62 NSCLC) | TGI (A498 renal) | TGI (OVCAR-4 ovarian) | TGI (OVCAR-5 ovarian) | TGI (SNB-75 CNS) | TGI (SK-MEL-2 melanoma) | TGI (OVCAR-3 ovarian) | TGI (PC-3 prostate) | GI50 (SK-MEL-2 melanoma)
1 | CO[C@H]1O[C@@H]2CO[C@@H](c3ccccc3)O[C@H]2C[C@]12CCC/C=C\CO2 | 25.2 µM | 68.1 µM | 31.8 µM | 44.4 µM | 37.2 µM | > 75 µM | > 75 µM | 61.8 µM | 41.4 µM | 24.6 µM | 50.8 µM | 
2 | CC/C(Cl)=N\OC(=O)Nc1ccc(C#N)cc1 | 30.7 µM | 32 µM | 22.7 µM | 39.2 µM | 30.3 µM | 23.6 µM | 29.5 µM | 28.2 µM | 30 µM | 32.7 µM | 30.5 µM | 
3 | O=[N+]([O-])C1(C2([N+](=O)[O-])CCCC2)CCCC1 | > 100 µM | > 100 µM | > 100 µM |  | > 100 µM | > 100 µM | > 100 µM | > 100 µM | > 100 µM | > 100 µM | > 100 µM | 
4 | O=C(O)c1ccccc1/C=N\NC1=NCCN1 | > 100 µM | > 100 µM | > 100 µM | > 100 µM | > 100 µM | > 100 µM | > 100 µM | > 100 µM | > 100 µM | > 100 µM | > 100 µM | 
5 | C[N+]1(C)CN(c2ccccc2)C2(CCN(CCCC(=O)c3cccs3)CC2)C1=O | > 100 µM | > 100 µM | > 100 µM | > 100 µM | > 100 µM | > 100 µM | > 100 µM | > 100 µM | > 100 µM | > 100 µM | > 100 µM | 
6 | CC1OC(=O)c2ccccc2NC1=O (stereo unspecified) | > 100 µM | > 100 µM | > 100 µM | > 100 µM | > 100 µM | > 100 µM | > 100 µM | > 100 µM | > 100 µM | > 100 µM | > 100 µM | 
7 | CCCc1c2c3ccccc3nc-2nc2ccccn12 | > 100 µM | 88.6 µM | > 100 µM | 90.7 µM | > 100 µM | > 100 µM | 88.1 µM | > 100 µM | > 100 µM | > 100 µM | > 100 µM | 
8 | O=C(O)CCC1(c2ccccc2)NC(=O)NC1=O (stereo unspecified) | > 100 µM | > 100 µM | > 100 µM | > 100 µM | > 100 µM | > 100 µM | > 100 µM | > 100 µM | > 100 µM | > 100 µM | > 100 µM | 
9 | O/N=C\c1cc(O)c(O)c(/C=N/O)c1 | > 100 µM | > 100 µM | > 100 µM | > 100 µM | > 100 µM | > 100 µM | > 100 µM | > 100 µM | > 100 µM | > 100 µM | > 100 µM | 
10 | Cc1cc2c(-c3ccccc3)cc(=O)[nH]c2cc1N | > 100 µM | > 100 µM | > 100 µM | > 100 µM | > 100 µM | > 100 µM | > 100 µM | > 100 µM | > 100 µM | > 100 µM | > 100 µM | 
11 | Cc1nc2c(-c3ccccc3)[nH]c(C)c2c(=O)o1 | > 100 µM | > 100 µM | > 100 µM | > 100 µM | > 100 µM | > 100 µM | > 100 µM | > 100 µM | > 100 µM |  | > 100 µM | 
12 | CC(Cc1ccc(O)c(O)c1)C(C)Cc1ccc(O)c(O)c1 (stereo unspecified) | 33.6 µM | 46.6 µM | > 74.3 µM | 34.1 µM | 90.1 µM | 29.5 µM | 50.7 µM | 61.7 µM | 42.9 µM | 27.4 µM | > 79.6 µM | 
13 | O=C1OC(CN2CCN(c3ccccc3)CC2)CN1C(=S)Nc1ccccc1 (stereo unspecified) | > 100 µM | > 100 µM | > 100 µM | > 100 µM | > 100 µM | > 100 µM | > 100 µM | > 100 µM | > 100 µM | > 100 µM | > 100 µM | 
14 | COc1cc2c(cc1OC)CCN=C2 | > 100 µM | > 100 µM | > 100 µM | > 100 µM | > 100 µM | > 100 µM | > 100 µM | > 100 µM | > 100 µM | > 100 µM | > 100 µM | 
15 | Cn1c(=O)n(CC(Br)CBr)c(=O)n(CC(Br)CBr)c1=O (stereo unspecified) | > 100 µM | > 100 µM | 37.4 µM | > 100 µM | > 100 µM | > 100 µM | > 100 µM | > 100 µM | > 100 µM | > 100 µM | > 100 µM | 
16 | COC(=O)C1=C(C)NC(C)=C([N+](=O)[O-])C1c1cccc(NO)c1 (stereo unspecified) | 37.5 µM | > 100 µM | 8.93 µM | > 100 µM | 70 µM | 40.6 µM | > 100 µM | > 100 µM | > 43.8 µM | 19.5 µM | 26.1 µM | 

Row | Structure (SMILES) | TGI (OVCAR-8 ovarian) | TGI (NCI-H23 lung) | TGI (SR leukemia) | TGI (HOP-62 NSCLC) | TGI (A498 renal) | TGI (OVCAR-4 ovarian) | TGI (OVCAR-5 ovarian) | TGI (SNB-75 CNS) | TGI (SK-MEL-2 melanoma) | TGI (OVCAR-3 ovarian) | TGI (PC-3 prostate) | GI50 (SK-MEL-2 melanoma)
17 | C=CCn1c(=O)c(C)cn(/C(=C/C(=O)OCC)C(=O)OCC)c1=O | 45.9 µM | 31.8 µM | 13.3 µM | > 100 µM | 45.1 µM | 46.4 µM | 30.2 µM | 25.6 µM | 53.6 µM | 23.3 µM | 28.9 µM | 
18 | Cc1ccc(S(=O)(=O)N/N=C2\C=C[C@]3(CC2)C(=O)N(C)c2ccccc23)cc1 | > 100 µM | > 100 µM | > 100 µM | > 100 µM | > 100 µM | > 100 µM | > 100 µM | > 100 µM | > 100 µM | > 100 µM | > 100 µM | 
19 | Cc1ccc(C2=Nc3c(N)nc(N)nc3NC(c3ccccc3)C2)cc1 (stereo unspecified) | 29.3 µM and 28.8 µM | 24.1 µM and 25.6 µM | > 100 µM | 25.5 µM and 22.3 µM | 23.6 µM | 27.6 µM and 29.9 µM | 30.5 µM and 33.5 µM | 29.8 µM and 27.4 µM | 22 µM and 17.9 µM | 24.8 µM and 24.9 µM | 22.9 µM and 24 µM | 9.71 µM and 4.19 µM
20 | COc1ccc(NC2=NCCO2)c2ccccc12 | > 10 µM |  | > 10 µM | > 10 µM | > 10 µM | > 10 µM | > 10 µM | > 10 µM | > 10 µM | > 10 µM | > 10 µM | 
21 | CC1(C)CC(=O)c2c(nc3ccc4ccccc4c3c2-c2ccc(NC(=O)CCCCC(=O)Nc3ccc(-c4c5c(nc6ccc7ccccc7c46)CC(C)(C)CC5=O)cc3)cc2)C1 | > 100 µM | > 100 µM | > 100 µM | > 100 µM | > 100 µM |  | > 100 µM | > 100 µM | > 100 µM | > 100 µM | > 100 µM | 
22 | CCOC(=O)c1nc2cc(C(F)(F)F)ccc2nc1Nc1ccc(Cl)c(Cl)c1 | > 100 µM | > 100 µM | > 100 µM | > 100 µM | > 100 µM | > 100 µM | > 100 µM | > 100 µM | > 100 µM | > 100 µM | > 100 µM | 
23 | Clc1nc2c(-c3cccs3)ncnc2n1Cc1ccccc1 | > 100 µM | > 100 µM | > 100 µM | > 100 µM | 55.6 µM | > 100 µM | > 100 µM | 58.7 µM | > 100 µM | 49.8 µM | > 76.4 µM | 
24 | COc1ccc(C)cc1NC(=S)N/N=C/c1ccc(SC)cc1 | > 100 µM | > 100 µM | > 100 µM | > 100 µM | > 100 µM | > 100 µM | > 100 µM | > 100 µM | > 100 µM | > 100 µM | > 100 µM | 
25 | CSc1c(C#N)c2n(c3ccccc3[n+]2C)c2ncccc12 | 73.4 µM | 51.6 µM | > 100 µM | > 100 µM | 84.6 µM | 91.1 µM | 84.6 µM | 50.4 µM | 39.7 µM | 71.7 µM | 45.3 µM | 
26 | CN1C[C@@H]2CCCN2P1Oc1cccc2cccnc12 (stereo partly specified) | > 100 µM | 57.7 µM | > 100 µM | > 100 µM | > 100 µM | > 100 µM | > 100 µM | > 100 µM | > 100 µM | 90.2 µM | > 100 µM | 
27 | C[C@@H]1CCC2[C@@H](C)C(=O)O[C@@H]3C4C[C@@H]1[C@@]23OO[C@@]4(C)O (stereo partly specified) | > 100 µM | > 100 µM | > 100 µM | > 100 µM | > 100 µM | > 100 µM | > 100 µM | > 100 µM | > 100 µM | > 100 µM | > 100 µM | 
28 | Cc1[nH]c2ccccc2c1C=Nc1ccc(Oc2ccccc2)cc1 | 43.4 µM | 32.1 µM | 51 µM |  | 37 µM | 34.6 µM | 30 µM | 26.1 µM | 34.3 µM | 27.6 µM | 26.9 µM | 
29 | COC(=O)CCCCC/C(=C\C(=O)C(Cl)(Cl)Cl)OC | 73.6 µM | > 100 µM | 45.2 µM | > 100 µM | > 100 µM | 42.1 µM | > 100 µM | 72.7 µM | 50 µM | 70.4 µM | 77.9 µM | 
30 | CSC(=NCCN=C(NS(=O)(=O)c1ccc(Cl)cc1)SC)NS(=O)(=O)c1ccc(Cl)cc1 | > 100 µM | > 100 µM | > 100 µM | 87.8 µM | > 100 µM | > 100 µM | > 100 µM | 51.3 µM | > 100 µM | > 100 µM | > 100 µM | 
31 | O=C1c2cc(CCl)sc2C(=O)c2ccsc21 | 0.674 µM | 0.136 µM | 0.571 µM |  | 3.01 µM | 0.336 µM | 3.31 µM | 0.38 µM | 0.42 µM | 0.52 µM | 0.839 µM | 
